Results taken from PubChem BioAssay (NCI).
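Assay format: 96-well plates, 48-hour exposure. GI50 marks 50% less growth. TGI: concentration producing complete growth inhibition.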

How the values were obtained:
Experiment in all cases: inhibition of tumour cell growth, NCI panel, 48 h
SF-268 CNS = system: SF-268 CNS
ACHN renal = system: ACHN renal
RPMI-8226 leukemia = system: RPMI-8226 leukemia
SK-OV-3 ovarian = system: SK-OV-3 ovarian
SW-620 colon = system: SW-620 colon
U251 CNS = system: U251 CNS
OVCAR-8 ovarian = system: OVCAR-8 ovarian
OVCAR-5 ovarian = system: OVCAR-5 ovarian
SK-MEL-5 melanoma = system: SK-MEL-5 melanoma
T-47D breast = system: T-47D breast

SMILES | TGI (SF-268 CNS) | TGI (ACHN renal) | TGI (RPMI-8226 leukemia) | TGI (SK-OV-3 ovarian) | TGI (SW-620 colon) | TGI (U251 CNS) | TGI (OVCAR-8 ovarian) | TGI (OVCAR-5 ovarian) | TGI (SK-MEL-5 melanoma) | GI50 (SF-268 CNS) | GI50 (ACHN renal) | GI50 (RPMI-8226 leukemia) | GI50 (SW-620 colon) | GI50 (OVCAR-8 ovarian) | GI50 (OVCAR-5 ovarian) | GI50 (SK-MEL-5 melanoma) | GI50 (SK-OV-3 ovarian) | GI50 (U251 CNS) | GI50 (T-47D breast) | TGI (T-47D breast)
NC1=NN(c2ccccc2)C(=O)C1C(=O)C(=O)Nc1ccc(Cl)cc1 (stereo unspecified) | > 100 µM | > 100 µM | > 100 µM | > 100 µM | > 100 µM | > 100 µM | > 100 µM | > 100 µM | > 100 µM | – | – | – | – | – | – | – | – | – | – | –
OCC#CCOCC#Cc1ccccc1C#CCOCC#CCO | > 100 µM | 85.8 µM | 35.3 µM | – | > 100 µM | – | > 100 µM | > 100 µM | > 100 µM | 36.9 µM | 27.8 µM | 13.7 µM | 58.9 µM | 43.8 µM | > 100 µM | 39.8 µM | – | – | – | –
C#CCN(N=O)C(=O)NC(CCCCNC(=O)OCc1ccccc1)C(=O)OCc1ccccc1 (stereo unspecified) | > 100 µM | > 100 µM | 45.9 µM | > 100 µM | 41 µM | 76.8 µM | 38.9 µM | 84 µM | – | – | – | – | – | – | – | – | – | – | – | –
O=S(=O)(C1=CC(S(=O)(=O)c2ccccc2)COC1)c1ccccc1 (stereo unspecified) | > 100 µM | > 100 µM | > 100 µM | > 100 µM | > 100 µM | > 100 µM | > 100 µM | – | – | – | – | – | – | – | – | – | – | – | – | –
O=CC(OC(=O)c1ccccc1)C(OC(=O)c1ccccc1)C(COC(c1ccccc1)(c1ccccc1)c1ccccc1)OC(=O)c1ccccc1 (stereo unspecified) | 32.3 µM | 24 µM | – | 48.2 µM | 20.7 µM | 20.2 µM | 54.1 µM | 43.9 µM | 30.3 µM | 12.7 µM | 11.4 µM | – | 5.13 µM | 4.76 µM | 21.6 µM | 15.4 µM | 21.3 µM | 7.51 µM | 4.65 µM | 22.7 µM
N#CCCN(CCC#N)c1ccc(/C=C(/NC(=O)c2cc([N+](=O)[O-])ccc2Cl)C(=O)N=[N+]=[N-])cc1 | > 100 µM | > 100 µM | > 100 µM | > 100 µM | > 100 µM | > 100 µM | > 100 µM | > 100 µM | > 100 µM | – | – | – | – | – | – | – | – | – | – | –
O/N=C1/CCC/C1=C\c1ccccc1 | > 100 µM | > 100 µM | > 100 µM | > 100 µM | > 100 µM | > 100 µM | > 100 µM | > 100 µM | > 100 µM | – | – | – | – | – | – | – | – | – | – | –
CC(=O)OC1C[C@H]2C(OC(=O)c3ccccc3)C3C4(OC(C)=O)COC4C[C@H](OC(C)=O)[C@@]3(C)C(OC(C)=O)[C@H](OC(C)=O)C(=C1C)C2(C)C (stereo partly specified) | > 100 µM | > 100 µM | > 100 µM | > 100 µM | > 100 µM | – | > 100 µM | > 100 µM | > 100 µM | – | – | – | – | – | – | – | – | – | – | –
Nc1cn(C2OC(CC(c3ccccc3)(c3ccccc3)c3ccccc3)C(O)C2O)c(=O)[nH]c1=O (stereo unspecified) | > 100 µM | > 100 µM | 42 µM | 98.2 µM | 28 µM | 32.1 µM | 89.6 µM | > 100 µM | 37.4 µM | – | – | – | – | – | – | – | – | – | – | –
OCC1NC(COC2OC(CO)C(O)C(O)C2O)C(O)C(O)C1O (stereo unspecified) | > 100 µM | > 100 µM | > 100 µM | – | > 100 µM | > 100 µM | > 100 µM | > 100 µM | > 100 µM | – | – | – | – | – | – | – | – | – | – | > 100 µM
O=C(CCc1nc(=S)[nH][nH]1)Nc1cc(Cl)ccc1Cl | > 100 µM | > 100 µM | > 100 µM | > 100 µM | > 100 µM | > 100 µM | > 100 µM | > 100 µM | > 100 µM | – | – | – | – | – | – | – | – | – | – | –
NC(CCSCC(F)(F)F)C(=O)O (stereo unspecified) | > 100 µM | > 100 µM | – | – | > 100 µM | > 100 µM | > 100 µM | > 100 µM | > 100 µM | – | – | – | – | – | – | – | – | – | – | –
C[C@H]1CCC/C=C/C2CC(OC(=O)CN(C)C)CC2C(OC(=O)CN(C)C)/C=C/C(=O)O1 (stereo partly specified) | > 100 µM | 11.9 µM | > 81.4 µM | – | 1.95 µM | 46.8 µM | > 22.9 µM | 4.05 µM | 0.243 µM | 0.484 µM | 0.398 µM | 0.712 µM | 0.318 µM | 0.308 µM | 0.44 µM | 0.0982 µM | 0.237 µM | 0.861 µM | – | –
CC(=O)NNc1nc(C)c(C(=O)NNC(=O)C(=O)Nc2ccc(Cl)c([N+](=O)[O-])c2)s1 | > 100 µM | > 100 µM | > 100 µM | > 100 µM | > 100 µM | > 100 µM | > 100 µM | > 100 µM | > 100 µM | – | – | – | – | – | – | – | – | – | – | –
O=C(CCC(=O)Nc1ccccc1C(F)(F)F)N/N=C1\C(=N\NC(=O)CCC(=O)Nc2ccccc2C(F)(F)F)C(c2ccc3c(c2)OCO3)Oc2ccccc21 (stereo unspecified) | 18.9 µM | > 100 µM | > 100 µM | > 82.5 µM | > 100 µM | 68.5 µM | > 100 µM | > 100 µM | > 100 µM | – | – | – | – | – | – | – | – | – | – | –
CCc1cccc(C(C)C)c1NC(=O)CC1Sc2ccccc2NC1=O (stereo unspecified) | > 100 µM | > 100 µM | > 100 µM | > 100 µM | > 100 µM | > 100 µM | > 100 µM | > 100 µM | > 100 µM | – | – | – | – | – | – | – | – | – | – | –
COc1ccccc1-n1cnc(N)c1C(=O)c1cc(OC)c(OC)c(OC)c1 | > 100 µM | > 100 µM | 13.3 µM | – | > 100 µM | > 100 µM | > 100 µM | > 100 µM | > 100 µM | 4.44 µM | 5.19 µM | 2.42 µM | 3.25 µM | 5.85 µM | 62.5 µM | 3.13 µM | – | 3.74 µM | – | –
N#Cc1ncc(C(Cl)Cl)nc1Cl | > 7.78 µM | 4.32 µM | – | > 10 µM | 5.31 µM | 3.78 µM | 5.16 µM | 4.39 µM | 3.35 µM | – | – | – | – | – | – | – | – | – | – | 3.78 µM
Cc1noc2cccc(O)c12 | > 100 µM | > 100 µM | – | > 100 µM | > 100 µM | > 100 µM | > 100 µM | > 100 µM | > 100 µM | – | – | – | – | – | – | – | – | – | – | –
COc1ccc(C(c2ccccc2C(=O)O)c2ccc(OC)c3ccccc23)c2ccccc12 | – | 23.5 µM | 20.8 µM | 45.1 µM | 44.4 µM | 26.6 µM | 34.8 µM | 31.4 µM | 34.2 µM | – | – | – | – | – | – | – | – | – | – | –
